Reference: patent US6716833B2, “Acetylenic α-amino acid-based sulfonamide hydroxamic acid tace inhibitors” (priority 1999, dated 2004)
Where a name gives a salt, the structure may show the parent alone. Read-outs that look alike come from different tables or passages of the source.

Experiments:
MMP-13 = MMP-13 (Homo sapiens, UniProt P45452); experiment: MMP-13 inhibition (thiopeptide or fluorescent peptide substrate); type: biochemical; conditions: read-out: MMP-13 IC50
THP-1 cells = experiment: THP-1 soluble protein assay, soluble TNF-α (ELISA); type: cell-based, human; conditions: for inhibition at 3 µM: Homo sapiens
Protocol: Each vial of cells are cultured for about two weeks prior to being used for an assay and then are used for only 4 to 6 weeks to screen compounds.
Cell exposure to DMSO was limited to 0.1% final concentration. […] Plates are placed into an incubator set at 5% CO2 and at 37° C. After 4 hours of incubation, 300 ml/well of tissue culture supernatant (TCS) is removed for use in an TNF-α ELISA.
Percent change in each soluble protein evaluated from the “vehicle positive control” was calculated for each compound concentration with the following formula:
% Change=pg/ml (compound)−pg/ml (veh pos control)/(veh pos control)−pg/ml (veh neg control)×100
For the soluble protein (TNF-α, p75/80, p55/60, IL-8) studies under stimulated conditions, the mean pg/ml of duplicate wells were determined and the results expressed as percent change from “vehicle positive control”.

[1] = biological target: TNF-α converting enzyme (TACE) (Homo sapiens, UniProt P78536); experiment: TACE inhibition (fluorescent peptidyl substrate); type: biochemical
Protocol: Using 96-well black microtiter plates, each well receives a solution composed of 10 μL TACE (final concentration 1 μg/mL), 70 μL Tris buffer, pH 7.4 containing 10% glycerol (final concentration 10 mM), and 10 μL of test compound solution in DMSO (final concentration 1 μM, DMSO concentration <1%) and incubated for 10 minutes at room temperature.
The reaction is read (excitation 340 nm, emission 420 nm) for 10 min. and the increase in fluorescence over time is plotted as a linear line. The slope of the line is calculated and represents the reaction rate.
The linearity of the reaction rate is confirmed (r^2>0.85). The mean (x±sem) of the control rate is calculated and compared for statistical significance (p<0.05) with drug-treated rates using Dunnett's multiple comparison test.

MMP-9 = MMP-9 (Homo sapiens, UniProt P14780); experiment: MMP-9 inhibition (thiopeptide or fluorescent peptide substrate); type: biochemical; conditions: read-out: MMP-9 IC50
MMP-1 = biological target: T1, MMP-1 (Homo sapiens, UniProt P03956); experiment: MMP-1 inhibition (thiopeptide or fluorescent peptide substrate); type: biochemical; conditions: read-out: MMP-1 IC50
T1 sequence (P03956 100-469): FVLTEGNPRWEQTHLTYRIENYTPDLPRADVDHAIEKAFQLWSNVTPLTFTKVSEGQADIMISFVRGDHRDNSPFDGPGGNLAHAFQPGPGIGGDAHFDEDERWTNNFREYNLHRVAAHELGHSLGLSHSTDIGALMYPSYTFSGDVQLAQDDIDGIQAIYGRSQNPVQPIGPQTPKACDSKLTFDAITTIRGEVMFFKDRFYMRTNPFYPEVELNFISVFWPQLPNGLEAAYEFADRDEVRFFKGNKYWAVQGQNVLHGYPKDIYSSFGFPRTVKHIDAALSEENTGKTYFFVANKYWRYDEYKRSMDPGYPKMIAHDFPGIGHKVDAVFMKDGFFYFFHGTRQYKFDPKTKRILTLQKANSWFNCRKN

[2] = THP-1, 3 μM, THP-1 cells, read-out: THP % Inhibition @ 3 μM

Sequence of TNF-α converting enzyme (TACE) (P78536 215-824, species assumed): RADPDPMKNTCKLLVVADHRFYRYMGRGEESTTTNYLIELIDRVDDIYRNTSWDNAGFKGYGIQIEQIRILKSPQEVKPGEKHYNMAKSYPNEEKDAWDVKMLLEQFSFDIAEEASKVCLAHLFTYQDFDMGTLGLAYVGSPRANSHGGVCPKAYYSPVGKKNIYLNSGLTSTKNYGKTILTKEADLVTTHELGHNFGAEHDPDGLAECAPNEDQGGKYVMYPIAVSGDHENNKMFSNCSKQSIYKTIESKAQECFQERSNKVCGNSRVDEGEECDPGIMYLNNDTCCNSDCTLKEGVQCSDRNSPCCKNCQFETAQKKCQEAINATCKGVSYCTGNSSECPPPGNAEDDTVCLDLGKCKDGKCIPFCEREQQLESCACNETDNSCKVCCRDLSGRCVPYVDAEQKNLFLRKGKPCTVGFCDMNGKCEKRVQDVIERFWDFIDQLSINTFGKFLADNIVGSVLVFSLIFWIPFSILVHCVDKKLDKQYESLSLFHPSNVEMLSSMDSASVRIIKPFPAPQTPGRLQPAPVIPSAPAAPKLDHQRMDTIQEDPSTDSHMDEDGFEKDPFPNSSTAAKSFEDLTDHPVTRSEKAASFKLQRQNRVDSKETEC
Sequence of MMP-9 (P14780 94-707): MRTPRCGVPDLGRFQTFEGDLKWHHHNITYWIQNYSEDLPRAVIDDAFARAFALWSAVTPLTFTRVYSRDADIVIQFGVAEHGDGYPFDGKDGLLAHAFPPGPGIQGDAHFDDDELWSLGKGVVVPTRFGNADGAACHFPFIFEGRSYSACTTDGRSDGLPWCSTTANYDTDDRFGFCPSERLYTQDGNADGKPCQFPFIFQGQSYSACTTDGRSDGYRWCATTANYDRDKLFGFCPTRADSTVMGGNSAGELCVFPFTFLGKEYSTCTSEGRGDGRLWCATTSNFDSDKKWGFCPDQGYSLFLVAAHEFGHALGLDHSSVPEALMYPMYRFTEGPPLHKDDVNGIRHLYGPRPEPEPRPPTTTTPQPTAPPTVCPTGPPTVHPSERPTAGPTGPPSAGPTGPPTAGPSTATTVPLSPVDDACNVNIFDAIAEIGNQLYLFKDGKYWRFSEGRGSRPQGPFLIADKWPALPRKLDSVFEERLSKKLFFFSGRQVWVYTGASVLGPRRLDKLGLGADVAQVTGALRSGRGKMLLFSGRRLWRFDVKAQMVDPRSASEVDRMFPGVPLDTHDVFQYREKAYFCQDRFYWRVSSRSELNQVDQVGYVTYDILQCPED

Row | Compound | IC50 (MMP-13) | IC50 ([1]; read-out: TACE IC50) | IC50 (MMP-9) | IC50 (MMP-1) | melting point | other results
1 | 3-(Benzylthio)-2-[[[4-(2-butynyloxy)phenyl]sulfonyl]methylamino]-N-hydroxypropanamide [Example 156] | 4.5 nM | 4.8 nM |  |  |  | THP % Inhibition @ 3 μM (THP-1 cells; THP-1 cells): 75%
2 | CC#CCOc1ccc(S(=O)(=O)N(CC(=O)NO)Cc2cccnc2)cc1 [Example 23, 2-[(4-but-2-ynyloxy-Benzenesulfonyl)-pyridin-3-ylmethyl-amino]-N-hydroxyacetamide Hydrochloride] |  |  |  |  |  | inhibition at 3 µM (THP-1 cells; THP-1, read-out: THP % Inhibition @ 3 μM): 63%
3 | CC#CCOc1ccc(S(=O)(=O)N(C)[C@@H](C(=O)NO)[C@H]2CC[C@H](O)CC2)cc1 [Example 130] | 15 nM | 23 nM | 30 nM | 169 nM | 195 to 197 °C | 
4 | CC#CCOc1ccc(S(=O)(=O)N(C)C2(C(=O)NO)CCCCC2)cc1 [Example 136, 1-[{[4-(2-Butynyloxy)phenyl]sulfonyl}(methyl)amino]-N-hydroxycyclohexanecarboxamide] | 1630 nM | 574 nM | 3750 nM | 682 nM | 89 to 92 °C | 
5 | CC#CCOc1ccc(S(=O)(=O)N(Cc2cccnc2)C2(C(=O)NO)CCCCC2)cc1 [Example 137, 1-[{[4-(2-Butynyloxy)phenyl]sulfonyl}(3-pyridinylmethyl)amino]N-hydroxycyclohexanecarboxamide] | 48 nM | 191 nM | 79 nM | 482 nM | 179 to 181 °C | 
6 | CC#CCOc1ccc(S(=O)(=O)N(C)C(C(=O)NO)C(C)(C)SCCN2CCN(C)CC2)cc1 (stereo not shown) [Example 141] | 7.6 nM | 101 nM | 8.3 nM | 17 nM | 110 to 115 °C | 
7 | CC#CCOc1ccc(S(=O)(=O)N(C)C(C(=O)NO)C(C)(C)SCCN(CC)CC)cc1 (stereo not shown) [Example 142, 2-({[4-(2-Butynyloxy)phenyl]sulfonyl)(methyl)amino]-N-hydroxy-3-methyl-3-{[2-(diethylamino)ethyl]sulfanyl}butanamide] | 14 nM | 131 nM | 10 nM | 72 nM | 55 to 57 °C | 
8 | CC#CCOc1ccc(S(=O)(=O)N(C)C(C(=O)NO)C(C)(C)SCCCN2CCOCC2)cc1 (stereo not shown) [Example 146] | 3.6 nM | 132 nM | 5.3 nM | 13 nM | 48 to 52 °C | 
9 | CC#CCOc1ccc(S(=O)(=O)N(C)C(C(=O)NO)C(C)(C)SCCCN2CCN(C)CC2)cc1 (stereo not shown) [Example 147, 2-({[4-(2-Butynyloxy)phenyl]sulfonyl)(methyl)amino]-N-hydroxy-3 Methyl-3-{[2(4-methyl-1-ethyl-1-piperazinyl)propyl]sulfanyl}butanamide] | 5.3 nM | 157 nM | 5.3 nM | 21 nM | 58 to 62 °C | 
10 | CC#CCOc1ccc(S(=O)(=O)N(C)C(C(=O)NO)C(C)(C)SC)cc1 (stereo not shown) [Example 149, 2-[(4-but-2-ynyloxy-Benenesulfonyl)-methyl-amino]-N-hydroxy-3-methyl-3-methylsulfanyl-butyramide] | 4.6 nM | 29 nM | 13 nM | 17 nM | 132 to 135 °C | 
11 | CC#CCOc1ccc(S(=O)(=O)N(C)C(C(=O)NO)C(C)(C)SCC)cc1 (stereo not shown) [Example 150, 2-[(4-but-2-ynyloxy-Benenesulfonyl)-methyl-amino]-N-hydroxy-3-methyl-3-ethylsulfanyl-butyramide] | 9.3 nM | 51 nM |  | 25 nM |  | THP % Inhibition @ 3 μM (THP-1 cells; THP-1 cells): 86%
12 | CC#CCOc1ccc(S(=O)(=O)N(C)C(C(=O)NO)C(C)(C)SCc2ccccc2)cc1 (stereo not shown) [Example 153, 2-[(4-but-2-ynyloxy-Benenesulfonyl)-methyl-amino]-N-hydroxy-3-methyl-3-benzylsulfanyl-butyramide] | 2 nM | 160 nM | 5.5 nM | 13 nM | 156 to 158 °C | 
13 | CC#CCOc1ccc(S(=O)(=O)N(Cc2cccnc2)C(CSCc2ccccc2)C(=O)NO)cc1 (stereo not shown) [Example 157, 3-(Benzylthio)-2-[[[4-(2-butynyloxy)phenyl]sulfonyl]pyridin-3-ylmethylamino]-N-hydroxypropanamide] | 3.8 nM | 98 nM | 32 nM | 111 nM | 74 to 78 °C | 
14 | CC#CCOc1ccc(S(=O)(=O)N[C@@H](C(=O)NO)C(C)(C)SCCCO)cc1 [Example 171, (2S)-2-({[4-(2-Butynyloxy)phenyl]sulfonyl}amino)-N-hydroxy-3-[(3-hydroxypropyl)sulfanyl]-3-methylbutanamide] | 36 nM | 25 nM |  | 2140 nM |  | inhibition at 3 µM (THP-1 cells; [2]): 67%
15 | CC#CCOc1ccc(S(=O)(=O)N[C@H](CSCCCO)C(=O)NO)cc1 [Example 172, (2S)-2-({[4-(2-Butynyloxy)phenyl]sulfonyl}amino)-N-hydroxy-3-[(3-hydroxypropyl)sulfanyl]-3-propanamide] | 169 nM | 11 nM |  | > 1000 nM |  | inhibition at 3 µM (THP-1 cells; [2]): 70%
16 | CC#CCOc1ccc(S(=O)(=O)N(C)C(C(=O)NO)c2ccc(OCCN(C)C(=O)OC(C)(C)C)cc2)cc1 (stereo not shown) [Example 191, tert-Butyl(2-{4-[1-({[4-(2-Butynyloxy)phenyl]sulfonyl}(methyl)amino)-2-(hydroxyamino)-2-oxoethyl)phenoxy]ethyl)-(methyl)carbamate] | 60 nM | 64 nM | 37 nM | 1150 nM | 62 °C (dec.) | 
17 | CC#CCOc1ccc(S(=O)(=O)NC(C(=O)NO)c2ccc(OCCN(C)C(=O)OC(C)(C)C)cc2)cc1 (stereo not shown) [Example 203, tert-Butyl 4-(2-{4-[1-({[4-(2-Butynyloxy)phenyl]sulfonyl}amino)-2-(hydroxyamino)-2-oxoethyl)phenoxy]ethyl)-(methyl)carbamate] | 126 nM | 49 nM | 859 nM | > 10000 nM | 90 to 92 °C | 
18 | CC#CCOc1ccc(S(=O)(=O)N(C)C(C(=O)NO)c2ccc(Cl)cc2)cc1 (stereo not shown) [Example 212, 2-[{[4-(2-Butynyloxy)phenyl]sulfonyl}(methyl)amino]-2-(4-chlorophenyl)-N-hydroxyacetamide] | 36 nM | 62 nM |  | 798 nM | 170 to 172 °C | 
19 | CC#CCOc1ccc(S(=O)(=O)N(C)C(CCCSc2ccc(Cl)cc2)C(=O)NO)cc1 (stereo not shown) [Example 213, 2-[{[4-(2-Butynyloxy)phenyl]sulfonyl}(methyl)amino]-5[(4-chlorophenyl)sulfanyl]-N-hydroxypentanamide] | 9 nM | 210 nM |  | 453 nM | 144 to 145.5 °C | 
20 | CC#CCOc1ccc(S(=O)(=O)N2CCSC3(CCCC3)C2C(=O)NO)cc1 (stereo not shown) [Example 236] |  |  |  |  | 206 to 208 °C | IC50 (MMP-13; Table 9): 11 nM; IC50 ([1]; Table 9, read-out: TACE IC50): 43 nM; IC50 (MMP-1; Table 9): 24 nM
21 | CC#CCOc1ccc(S(=O)(=O)N2CCSC3(CCCCC3)C2C(=O)NO)cc1 (stereo not shown) [Example 237] |  |  |  |  |  | IC50 (MMP-13; Table 9): 12 nM; THP % Inhibition @ 3 μM (THP-1 cells; Table 9): 90%; IC50 ([1]; Table 9, read-out: TACE IC50): 212 nM; IC50 (MMP-1; Table 9): 62 nM
22 | CC#CCOc1ccc(S(=O)(=O)N2CCSC(CC)(CC)C2C(=O)NO)cc1 (stereo not shown) [Example 238] |  |  |  |  |  | IC50 (MMP-13; Table 9): 6.8 nM; THP % Inhibition @ 3 μM (THP-1 cells; Table 9): 73%; IC50 ([1]; Table 9, read-out: TACE IC50): 228 nM; IC50 (MMP-1; Table 9): 38 nM
23 | CC#CCOc1ccc(S(=O)(=O)N2CCSCC2C(=O)NO)cc1 (stereo not shown) [Example 239] |  |  |  |  | 150 to 154 °C | IC50 (MMP-13; Table 9): 12 nM; IC50 (MMP-9; Table 9): 21 nM; IC50 ([1]; Table 9, read-out: TACE IC50): 2.9 nM
24 | CC#CCOc1ccc(S(=O)(=O)N2CCOCC2C(=O)NO)cc1 (stereo not shown) [Example 240, 4-([4-(2-Butynyloxy)phenyl]sulfonyl}-N-hydroxy-3-morpholinecarboxamide] |  |  |  |  | 68 to 72 °C | IC50 (MMP-13; Table 9): 26 nM; IC50 (MMP-9; Table 9): 170 nM; IC50 ([1]; TACE IC50): 4.5 nM
25 | CC1(C)SCCN(S(=O)(=O)c2ccc(OCC#CCO)cc2)[C@H]1C(=O)NO [Example 260, (3S)-N-Hydroxy-4-({4-[(4-hydroxy-2-butynyl)oxy]phenyl}sulfonyl)-2,2-dimethyl-3-thiomorpholine Carboxamide] |  |  |  |  |  | IC50 (MMP-13; Table 10): 8.1 nM; inhibition at 3 µM (THP-1 cells; THP-1, 3 μM, Table 10, read-out: THP % Inhibition @ 3 μM): 95%; IC50 ([1]; Table 10, read-out: TACE IC50): 20 nM; IC50 (MMP-1; Table 10): 33 nM
26 | CC#CCOc1ccc(S(=O)(=O)NC2(C(=O)NO)CCN(C(=O)OC(C)(C)C)CC2)cc1 [Example 287, tert-Butyl 4-({[4-(2-Butynyloxy)phenyl]sulfonyl}amino)-4-[(hydroxyamino)carbonyl]-1-piperidinecarboxylate] | 530 nM | 37 nM |  | > 10000 nM |  | inhibition at 3 µM (THP-1 cells; [2]): 60%
